Source: US10227663B2, “Non-replicative transduction particles and transduction particle-based reporter systems” (priority 2013, dated 2019)
In brackets after ≈: the same amount, converted by molar mass. Where two headings read alike, the source gives them in different places.

Experiments:
[1] = tested on: cefoxitin resistant S. aureus (MRSA strains); test: MIC determination via plating on TSA plates containing cefoxitin; type: cell-based; conditions: Staphylococcus aureus
Protocol: (§1) Overnight Culture: For each MRSA strain ([…] and S7) and a MSSA negative control strain (MSSA121), 2 mL of TSB were inoculated with a colony of the strain previously grown on TSA plates. Overnight MRSA cultures included 5 ug/mL cefoxitin. All samples were incubated overnight at 37° C. in a shaking incubator.
(§2) Day Culture: 20 uL of each of the overnight cultures were transferred into a new culture tube containing 2 mL of Growth Media Reagent. The inoculums were then incubated at 37 C with shaking for approximately 1 hr 45 min, until the OD(600 nm) reached 0.1.
a) Each of the day cultures was streaked onto TSA plates containing cefoxitin at 4, 8, 16, 32, 64, and 128 ug/mL.
b) Plates were incubated for 18 hours at 37 C to determine growth.

[2] = tested on: cefoxitin resistant S. aureus (MRSA strains); test: NRTP-based cefoxitin susceptibility assay (luminescence); type: cell-based, Staphylococcus aureus
Protocol: as §1, §2
a) Wells of a white 96 well assay plate were filled with 100 uL of 2× Transduction Particle Reagent.
b) For each of the day cultures, five wells were then filled with 100 uL of day culture.
c) For each of the day cultures, cefoxitin was added to one well each such that the cefoxitin concentration in the well was at 4, 8, 16, 32, 64, and 128 ug/mL. […]
At the end of 4 hours, the plate was remove from incubator and immediately measured for luminescence on a SpectraMax L that injected 50 μl of the Substrate Reagent and measured luminescence for a period of 1 minute.
The maximum luminescence value after Substrate Reagent addition from each sample was plotted. MSSA sample RLU values were used to determine a Cutoff calculated using the following formula: (Mean MSSA RLU+3*SD MSSA RLU).

CO[C@@]1(NC(=O)Cc2cccs2)C(=O)N2C(C(=O)O)=C(COC(N)=O)CS[C@@H]21 [cefoxitin]
MIC ([1]; MRSA / NRS 25, 18 h): 128 µg/mL (≈ 299 µM)
MIC ([1]; MRSA S7, TSA plates, 18 hours at 37 C, read-out: MIC): 64 µg/mL (≈ 150 µM)
Cefoxitin concentration up to which luminescence was above the MSSA RLU cutoff ([2]; MRSA NRS25, 4 hours at 37° C.): up to 64 ug/mL
Cefoxitin concentration up to which luminescence was above the MSSA RLU cutoff ([2]; MRSA S7, 4 hours at 37° C.): up to 32 ug/mL
